Experimental data from patent publication US20080312192A1, “Diaryl Urea Derivatives in the Treatment of Protein Kinase Dependent Diseases” (priority 2003, published 2008).

Experiments:
RET = biological target: T1, RET (Homo sapiens, UniProt P07949); experiment: RET kinase inhibition (33P incorporation into poly(Glu,Tyr), GST-wtRET or GST-RET-Men2B); format: biochemical
T1 construct: expresses the amino acid region 658-1072 (Swiss prot No. Q9BTB0); made in house; host or cells: Sf9 insect cells (baculovirus, vector pFB-GSTX3)
T1 sequence (P07949 658-1072 isoform P07949-2): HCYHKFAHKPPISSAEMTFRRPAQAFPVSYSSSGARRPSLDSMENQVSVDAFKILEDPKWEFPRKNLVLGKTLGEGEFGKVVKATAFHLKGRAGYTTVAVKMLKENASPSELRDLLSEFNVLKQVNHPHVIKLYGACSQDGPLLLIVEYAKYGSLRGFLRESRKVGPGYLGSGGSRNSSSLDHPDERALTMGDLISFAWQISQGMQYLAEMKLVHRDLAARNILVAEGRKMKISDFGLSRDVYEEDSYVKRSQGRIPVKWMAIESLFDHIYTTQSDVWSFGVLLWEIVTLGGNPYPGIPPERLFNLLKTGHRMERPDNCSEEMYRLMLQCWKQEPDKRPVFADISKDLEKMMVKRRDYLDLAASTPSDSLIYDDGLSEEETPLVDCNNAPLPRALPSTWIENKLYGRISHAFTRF
Procedure: RET kinase inhibition is determined as follows:
The coding sequence for the cytoplasmic domain of wtRET is amplified by PCR from a cDNA library using specific primers. RET-Men2B is generated through site-directed mutagenesis resulting in the M918T mutation. The amplified DNA fragments and the pFB-GSTX3 vector are made compatible for ligation by digestion with SalI and KpnI. Ligation of these DNA fragments results in the baculovirus donor plasmids […] and pFB-GX3-RET-Men2B, respectively.
Production of virus: The baculovirus donor plasmids containing the kinase domains are transfected into the DH10Bac cell line (GIBCO) and the transfected cells are plated on selective agar plates. Colonies without insertion of the fusion sequence into the viral genome (carried by the bacteria) are blue. Single, white colonies are picked and viral DNA (bacmid) is isolated from the bacteria by standard plasmid purification procedures. Sf9 cells or Sf21 cells (American Type Culture Collection) are then transfected in 25 cm^2 flasks with the viral DNA using Cellfectin reagent.
Protein expression in Sf9 cells: Virus-containing media is collected from the transfected cell culture and used for infection to increase its titer. Virus-containing media obtained after two rounds of infection is used for large-scale protein expression. For large-scale protein expression 100 cm^2 round tissue culture plates are seeded with 5×10^7 cells/plate and infected with 1 mL of virus-containing media (approximately 5 MOIs). After 3 days, the cells are scraped off the plate and centrifuged at 500 rpm for 5 minutes. Cell pellets from 10-20, 100 cm^2 plates are re-suspended in 50 mL of ice-cold lysis buffer (25 mM Tris-HCl, pH 7.5, 2 mM EDTA, 1% NP-40, 1 mM DTT, 1 mM PMSF). The cells are stirred on ice for 15 minutes and then centrifuged at 5,000 rpms for 20 minutes.
Purification of GST-tagged proteins: The centrifuged cell lysate is loaded onto a 2 mL glutathione-sepharose column (Pharmacia) and washed 3× with 10 mL of 25 mM Tris-HCl, pH 7.5, 2 mM EDTA, 1 mM DTT, 200 mM NaCl. The GST-tagged proteins are then eluted by 10 applications (1 mL each) of 25 mM Tris-HCl, pH 7.5, 10 mM reduced-glutathione, 100 mM NaCl, 1 mM DTT, 10% glycerol and stored at −70° C.
Measure of enzyme activity: Tyrosine protein kinase assays with either purified GST-wtRET or GST-RET-Men2B protein are carried out in a final volume of 30 μL containing 15 ng of either GST-RET or GST-RET-Men2B protein, 20 mM Tris-HCl, pH 7.5, 1 mM MnCl2, 10 mM MgCl2, 1 mM DTT, 3 μg/mL poly(Glu, Tyr) 4:1, 1% DMSO, 2.0 μM ATP (γ-[^33P]-ATP 0.1 μCi). The activity is assayed in the presence or absence of inhibitors, by measuring the incorporation of ^33P from [γ^33P] ATP into poly(Glu, Tyr) 4:1. […] Subsequently, 40 μL of the reaction mixture are transferred onto Immobilon-PVDF membrane (Millipore) previously soaked for 5 minutes with methanol, rinsed with water, then soaked for 5 minutes with 0.5% H3PO4 and mounted on vacuum manifold with disconnected vacuum source. After spotting all samples, vacuum is connected and each well rinsed with 200 μL 0.5% H3PO4. Membranes are removed and washed 4× on a shaker with 1.0% H3PO4, once with ethanol. Membranes are counted after drying at ambient temperature, mounting in Packard TopCount 96-well frame, and addition of 10 μl/well of Microscint™ (Packard). […] One unit of protein kinase activity is defined as 1 nmole of ^33P transferred from [γ^33P] ATP to the substrate protein/minute/mg of protein at 37° C.

ITD-Ba/F3 = details: Mus musculus, BaF3, 48 h, read-out: Inhibition of Flt-3 dependent Proliferation (ED50) ITD-mutant
Procedure: (§1) Inhibition of Proliferation in Flt-3 Dependent Ba/F3 Cells:
(§2) The compound's potential to penetrate cell membranes and exert antiproliferative effects is determined in Ba/F3 cells dependent on mutated [ITD or D835Y; Gilliland and Griffin, Blood, Vol. 100, No. 5, 153242 (2002)] Flt-3 receptor kinases.
(§3) A modified protocol of the YO-PRO-1 assay in a 96-well format is based on the use of the wild-type IL-3-dependent hematopoietic cell line Ba/F3 (DSMZ, Braunschweig, Germany) and the mutant sub-lines ITD-Ba/F3 or D835Y-Ba/F3 [Weisberg et al., Cancer Cell 1 (5):433-43 (2000)] expressing constitutively activating Flt-3 kinases.
(§4) ITD-FLT3- or D835Y-FLT3-Ba/F3 cells are diluted in fresh medium to a final concentration of 3×10^5 cells per ml and 50 μl aliquots seeded into 96-well plates (1.5×10^4 cells per well). Subsequently, 50 μl 2× compound solutions were added and cells incubated for 48 h. The anti-proliferative and apoptotic activity of a compound is initially tested in triplicates at 10 μM, 1 μM and 0.1 μM concentration on both cell lines. Cells treated with DMSO alone (added to a final concentration of 0.1%) always serves as a control. In addition, a plate blank value is routinely determined in a well containing only 100 μl of medium and no cells.
(§5) To further profile a compound an ED50 determination is done starting at 10 μM or 3 μM of the compound of interest. From those concentrations, stepwise nine dilutions are prepared reaching the final concentrations of 2 μM and 0.5 μM, respectively.
(§6) Activity of inhibitors is assessed by the YO-PRO-1 assay as previously described in [Idziorek et al., J. Immunol. […] Briefly, after the treatment period of 48 h, a 25 μl aliquot of a solution containing 100 mM sodium citrate, pH 4.0, 134 mM sodium chloride and 12.5 μM YO-PRO-1 dye (YO-PRO-1 iodide, #Y3603, Molecular Probes) is directly added to the 100 μl medium in the wells of the 96-well plate. That results in a final dye concentration of 2.5 μM, the plate is then incubated for 10 min at ambient temperature in the dark. The uptake of the YO-PRO-1 dye into cells is assessed by a first measurement using a Cytofluor II 96-well plate reader (PerSeptive Biosystems) with the following settings: Excitation (nm) 485120 and Emission (nm) 530/25, Gain 75. After this first reading, 25 μl of lysis buffer consisting of 20 mM sodium citrate, pH 4.0, 26.8 mM sodium chloride, 0.4% NP40, 20 mM EDTA and 20 mM is added to each well. Cell lysis is completed within 60 min at room temperature and total amount of YO-PRO-1 bound to DNA is determined by a second measurement using the Cytofluor II 96-well reader with the identical setting as described above.

D835Y-Ba/F3 = details: Mus musculus, BaF3, 48 h, read-out: Inhibition of Flt-3 dependent Proliferation (ED50) D835-mutant
Procedure: as §1, §2, §3, §4, §5, §6

Row | Compound | IC50 (RET) | EC50 (ITD-Ba/F3) | EC50 (D835Y-Ba/F3) | melting point
1 | CNc1cc(Oc2ccc(NC(=O)Nc3cc(CN(C)C)cc(C(F)(F)F)c3)cc2)ncn1 [1-(3-Dimethylaminomethyl-5-trifluoromethyl-phenyl)-3-[4-(6-methylamino-pyrimidin-4-yloxy)-phenyl]-urea] | 110 nM | – | – | –
2 | CN1CCN(Cc2cc(NC(=O)Nc3ccc(Oc4cc(N)ncn4)cc3)cc(C(F)(F)F)c2)CC1 [1-[4-(6-Amino-pyrimidin-4-yloxy)-phenyl]-3-[3-(4-methyl-piperazin-1-ylmethyl)-5-trifluoromethyl-phenyl]-urea] | 260 nM | – | – | –
3 | CNc1cc(Oc2ccc(NC(=O)Nc3cc(CN4CCN(C)CC4)cc(C(F)(F)F)c3)cc2)ncn1 [1-[4-(6-Methylamino-pyrimidin-4-yloxy)-phenyl]-3-[3-(4-methyl-piperazin-1-ylmethyl)-5-trifluoromethyl-phenyl]-urea] | 590 nM | – | – | –
4 | CC(C)N1CCN(Cc2ccc(NC(=O)Nc3ccc(Oc4ccnc(N)n4)cc3)cc2C(F)(F)F)CC1 [Example 45, N-[4-(2-Amino-pyrimidin-4-yloxy)-phenyl]-N′-[4-(4-isopropylpiperazin-1-ylmethyl)-3-trifluoromethyl-phenyl]-urea] | 400 nM | < 0.2 nM | 0.5 nM | –
5 | CNc1nccc(Oc2ccc(NC(=O)Nc3ccc(CN4CCN(C(C)C)CC4)c(C(F)(F)F)c3)cc2)n1 [Example 46, N-[4-(2-Methylamino-pyrimidin-4-yloxy)-phenyl]-N′-[4-(4-isopropylpiperazin-1-ylmethyl)-3-trifluoromethyl-phenyl]-urea] | – | < 0.2 nM | 3.9 nM | –
6 | CNc1nccc(Oc2ccc(NC(=O)Nc3ccc(CN4CCN(C(C)(C)C)CC4)c(C(F)(F)F)c3)cc2)n1 [Example 49, N-[4-(2-Methylamino-pyrimidin-4-yloxy)-phenyl]-N′-[4-(4-tert-butylpiperazinyl-methyl)-3-trifluoromethyl-phenyl]-urea] | – | 0.1 nM | 11.7 nM | 257 to 258 °C
7 | CCN1CCN(Cc2ccc(NC(=O)Nc3ccc(Oc4ccnc(NC)n4)cc3)cc2C(F)(F)F)CC1 [Example 53c, 1-[4-(4-Ethyl-piperazin-1-ylmethyl)-3-trifluoromethyl-phenyl]-3-[4-(2-methylamino-pyrimidin-4-yloxy)-phenyl]-urea] | 350 nM | 0.1 nM | 3.3 nM | –
